Where only a bound is given, the exact number is not on record here.

In series [1] the test system is P. falciparum oocysts in Anopheles stephensi mosquitoes. As to the kind of experiment: Standard membrane feeding assay (SMFA), indirect format. It counts as cell-based, Plasmodium falciparum. Also on record: Oocyst Reduction Intensity %: concentration or dose not given beside the values. The conditions noted are these: for Block in transmission (%) (reduction in oocyst prevalence): 1 or 2 μM (Pf FGAA IC90). The method, then: To validate the transmission-blocking potential of the TCAMS hits and assess the predictive value of the Pf FGAA as an in vitro high throughput surrogate of full mosquito feeding, the ‘gold-standard' SMFA was performed. Six compounds showing different biological profiles, belonging to four distinct chemical clusters, were selected based on their potencies in the Pf FGAA (Supplementary Data 1, Table 1). For each compound, inhibition of exflagellation of male gametocytes was measured. […] Compounds were tested in duplicate in 2–3 independent experiments in the indirect format of the assay, that is, gametocytes were exposed to the drug for 48 h before mosquito feeding to replicate a drug exposure time equivalent to that used in the Pf FGAA. […] By contrast, TCMDC-124559 reduced prevalence and intensity by <20% (Fig. 6a,b, respectively).
Day-14 gametocyte cultures were plated in pre-warmed six-well-plates (5 ml per well) and were exposed to the compounds (1 μM or 2 μM final concentration) for 48 h at 37 °C (3% O2, 5% CO2 and 92% N2). Within this incubation time, 3 ml of media were removed after the first 24 h and replenished with the same volume of fresh media with compound added to obtain the required final concentration. After 48 h of total exposure, cultures were centrifuged at 2,500 g for 3 min at 37 °C, diluted 1:1 with 100% packed volume of fresh erythrocytes and finally formulated as artificial mosquito blood meals at 50% haematocrit with pre-warmed human serum. All steps were performed at 37 °C to avoid gametocyte activation. Four- to six-day old female Anopheles stephensi mosquitoes (GlaxoSmithKline Insectary) were fed for 30 min via Parafilm membrane attached to glass feeders (12831283, Fisher Scientific) connected to a 37 °C circulating water bath. Fed mosquitoes were maintained in an incubator at 27 °C and 75% relative humidity with 12 h light/dark cycles. Seven to eight days post-feeding, mosquitoes with fully developed ovaries were dissected for midguts, which were rinsed in a 0.2% mercury-dibromofluorescein (63869, Fluka) in water solution for 10 min. Total number of oocysts in individual midguts were counted using a light microscope (DM2000, Leica) under a × 10 objective. The percentage of block in transmission (reduction in prevalence) and the percentage of reduction in mean oocyst intensity were calculated after normalizing to the control DMSO-treated sample. Two to three independent SMFA experiments were performed and two internal duplicates of 40 mosquitoes each were used per compound. Mean oocyst intensities were not less than two oocysts per mosquito and the prevalence of infection ranged from 70 to 90% in the fed mosquito control groups. See complete experimental data set in Supplementary Table 1 and Supplementary Note 1.

For a further series, the system named is HepG2 cells. Kind of series: HepG2 cytotoxicity assay. It counts as cell-based. In short, it runs like this: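 Cell viability is measured by CellTiter-Glo luminescence. Signal is developed at room temperature and read 10 min after adding the reagent, with plates and reagent first equilibrated for 30 min.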
Series [2] deals with P. falciparum female gametes. As to the kind of experiment: Pf FGAA with compounds added 30 min after triggering gametocyte activation (gamete-targeting). The conditions noted are these: Plasmodium falciparum; 0h incubation time. It counts as cell-based, Plasmodium falciparum NF54.
In series [3] the test system is Plasmodium berghei asexual blood stages. As to the kind of experiment: In vivo antimalarial therapeutic efficacy, P. berghei murine model. Further details: species or system CD1 mice. Here is the method: Two out of the six compounds progressed to SMFA, TCMDC-123767 (cluster 30) and TCMDC-141154 (cluster 4), were evaluated in vivo in the Plasmodium berghei murine model. Selection criteria was based on the compound potencies in both asexual stages and gametocytes in the Pf FGAA, as well as on their transmission-blocking activity observed in the SMFA (Table 1). Owing to compound availability, TCMDC-141154 had to be replaced by a close analogue from cluster 4: TCMDC-140549 (Supplementary Data 3). Compounds were tested at 50 mg kg^−1 single dose 2-day oral treatment and efficacy was measured as a reduction of asexual blood stages parasitaemia greater than 40% compared with the vehicle-treated mice.
Pathogen-free CD1 mice (Hsd:ICR) were obtained from Harlan Interfauna Iberica (Barcelona, Spain). Eight weeks old female CD-1 mice were infected intravenously with 10^7 infected erythrocytes (day 0). Dosing solutions were prepared in water containing 5% DMSO/20% Captisol, at a target dose of 50 mg kg^−1. Mice received two oral doses once a day according to their body weight (20 ml kg^−1) starting at day 2 after infection. Control mice received the same treatment schedule with the vehicle used for the compound preparation. Samples from mice peripheral blood were taken before starting treatment and 24 h after finishing the dosing, to measure parasitaemia by flow cytometry, using the YOYO-1 staining, to assess the reduction of parasitaemia compared with the vehicle-treated mice.

The nature of series [4]: In vivo pharmacokinetic study, single oral dose. Further details: species or system CD-1 mice. Here is the method:
Female CD-1 mice (Harlan Interfauna Iberica) at 8 weeks of age were used for single oral dose pharmacokinetic studies (n=2). Dosing solutions were prepared in 20% (v:v) Captisol in water, at a target dose of 50 mg kg^−1 (dose volume of 20 ml kg^−1). After oral dosing, blood samples (25 μl) were collected at 30 min, 1 h, 6 h and 8 h post dose for TCMDC-123767. All the blood samples were diluted with 25 μl of an aqueous solution of saponine 1% (w:v), and stored at −80 °C until analysis. Mice blood samples were analysed for each compound using a method upon protein precipitation followed by LC-MS/MS analysis (Applied Biosystems). Data analysis of the concentration time profiles was performed by noncompartmental methods by using WinNonLin Phoenix Version 6.3.

Setting [5] is: 48 h exposure before feeding, mean of 2-3 experiments.
Setting [6] is: HepG2 TOX50 versus Pf FGAA IC50.

In the case of `CC1Cc2ccccc2N1S(=O)(=O)c1cccc(C(=O)Nc2nc(-c3ccccn3)cs2)c1` (stereo not shown) [TCMDC-124559], in series [1] (setting [5]), the “Block in transmission (%) (reduction in oocyst prevalence)” value is recorded as below 20%. In addition, the “reduction in oocyst intensity” value in series [1] (48 h exposure before feeding, 1 or 2 μM, mean of 2-3 experiments) is on record as below 20%. Further, in series [1] (Expt 1), the “Block in Transmission %” value amounted to 5%, the “Mean Oocyst Intensity in Test Compound” value is reported as 4.1, the “Oocyst Reduction Intensity %” value worked out at 24% and the “Prevalence of Infection in Test Compound” value worked out at 74.29. Besides, in series [1] (Expt 2), the “Block in Transmission %” value was 0%, the “Mean Oocyst Intensity in Test Compound” value worked out at 2.5, the “Oocyst Reduction Intensity %” value is 0% and the “Prevalence of Infection in Test Compound” value was determined as 70. Further, in series [1] (Expt 3), the “Block in Transmission %” value was determined as 13%, the “Mean Oocyst Intensity in Test Compound” value is 2.8, the “Oocyst Reduction Intensity %” value was determined as 39% and the “Prevalence of Infection in Test Compound” value came out at 79.17. Further, in the series with HepG2 cells (HepG2, 48 h), the “Tox50” value is above 100 µM. The Selectivity ratio in the series with HepG2 cells (setting [6]) is on record as 146.27. Also, the “HepG2 cells mean TOX50” value in the series with HepG2 cells (HepG2 cells; mean) is reported as 50.12 µM.
As for `NCC1(c2nc(-c3ccc(Cl)c(O)c3)c(-c3ccncc3)[nH]2)CCCCC1` [TCMDC-141154], the IC50 in series [2] amounted to 0.25 µM. Besides, the “Block in transmission (%) (reduction in oocyst prevalence)” value in series [1] (setting [5]) was determined as 93%. In series [1] (Expt 1), the “Block in Transmission %” value was 93%, the “Mean Oocyst Intensity in Test Compound” value was found to be 0.1, the “Oocyst Reduction Intensity %” value worked out at 99% and the “Prevalence of Infection in Test Compound” value was 5.46. Moreover, in series [1] (Expt 2), the “Block in Transmission %” value was found to be 93%, the “Mean Oocyst Intensity in Test Compound” value was 0.1, the “Oocyst Reduction Intensity %” value was 98% and the “Prevalence of Infection in Test Compound” value came to 6.16. Further, in the series on HepG2 cells (HepG2, 48 h), the “Tox50” value was 11.9 µM. Besides, the Selectivity ratio in the series with HepG2 cells (HepG2 TOX50 / Pf FGAA IC50) is reported as 56.01. For the same molecule, in the series on HepG2 cells (mean; HepG2 cells), the “HepG2 cells mean TOX50” value was found to be 11.90 µM.
Take `FC(F)(F)c1cnc(Sc2nnc(-c3ccncc3)o2)c(Cl)c1` [TCMDC-123767]: the IC50 in series [2] was above 20 µM. The “Block in transmission (%) (reduction in oocyst prevalence)” value in series [1] (setting [5]) was found to be 83%. Besides, in series [1] (Expt 1), the “Block in Transmission %” value came to 83%, the “Mean Oocyst Intensity in Test Compound” value is listed as 0.1, the “Oocyst Reduction Intensity %” value came to 97% and the “Prevalence of Infection in Test Compound” value is recorded as 13.26. Further, in series [1] (Expt 2), the “Block in Transmission %” value is recorded as 85%, the “Mean Oocyst Intensity in Test Compound” value is listed as 0.1, the “Oocyst Reduction Intensity %” value was determined as 97% and the “Prevalence of Infection in Test Compound” value came out at 13.2. For the same molecule, the “Tox50” value in the series with HepG2 cells (HepG2, 48 h) was found to be 100 µM. Also, in the series with HepG2 cells (setting [6]), the Selectivity ratio is listed as above 625. Besides, the “HepG2 cells TOX50” value with HepG2 cells (HepG2 cells) is reported as above 100 µM. For the same molecule, in the series on HepG2 cells (HepG2 cells; mean), the “HepG2 cells mean TOX50” value was above 100 µM. Moreover, the “reduction of asexual blood stages parasitaemia (threshold 40% vs vehicle)” value in series [3] (50 mg kg^−1 single dose 2-day oral treatment, mice) is “not reduced above the threshold”. The molecule also showed an ED50 in series [3] (single dose 2-day treatment, oral, P. berghei mice) above 50 mg/kg. In series [4] (oral 50 mg kg^−1, mouse), the elimination in vivo result was “rapidly eliminated” and the “exposure levels in blood” value is recorded as “very low”. Also, the “last detected in blood above the lower limit of quantification (time post-administration)” value in series [4] (oral 50 mg kg^−1, mouse blood, LLOQ 2.5 ng ml^−1) was determined as 1 h.
On to `Cc1ccc(Cn2nc(Cl)c(N3CCNCC3)cc2=O)cc1NC(=O)Nc1ccc(-c2ccccc2)cc1` [TCMDC-141698], for which the IC50 in series [2] stood at 1.93 µM. Besides, in series [1] (setting [5]), the “Block in transmission (%) (reduction in oocyst prevalence)” value is recorded as 82%. In series [1] (Expt 1), the “Block in Transmission %” value is recorded as 82%, the “Mean Oocyst Intensity in Test Compound” value stood at 0.2, the “Oocyst Reduction Intensity %” value was found to be 97% and the “Prevalence of Infection in Test Compound” value was 14.04. For the same molecule, in series [1] (Expt 2), the “Block in Transmission %” value stood at 90%, the “Mean Oocyst Intensity in Test Compound” value stood at 0.2, the “Oocyst Reduction Intensity %” value is given as 97% and the “Prevalence of Infection in Test Compound” value came out at 8.8. Further, the “Tox50” value in the series with HepG2 cells (HepG2, 48 h) is 4.79 µM. For the same molecule, the Selectivity ratio with HepG2 cells (HepG2 TOX50 / Pf FGAA IC50) stood at 10.79. The “HepG2 cells mean TOX50” value in the series on HepG2 cells (mean; HepG2 cells) is recorded as 4.79 µM.
`CC(C)(CNC(=O)[C@H]1CCCCN1)c1nc(-c2ccc(Cl)c(O)c2)c(-c2ccncc2)[nH]1` [TCMDC-141070]: the IC50 in series [2] turned out to be 1.77 µM. Also, in series [1] (Expt 1), the “Block in Transmission %” value is recorded as 100%, the “Mean Oocyst Intensity in Test Compound” value worked out at 0, the “Oocyst Reduction Intensity %” value worked out at 100% and the “Prevalence of Infection in Test Compound” value was found to be 0. Also, in series [1] (Expt 2), the “Block in Transmission %” value came to 78%, the “Mean Oocyst Intensity in Test Compound” value worked out at 0.2, the “Oocyst Reduction Intensity %” value is reported as 92% and the “Prevalence of Infection in Test Compound” value is reported as 15.4. For the same molecule, in series [1] (Expt 3), the “Block in Transmission %” value was determined as 100%, the “Mean Oocyst Intensity in Test Compound” value was found to be 0, the “Oocyst Reduction Intensity %” value stood at 100% and the “Prevalence of Infection in Test Compound” value is 0. In the series on HepG2 cells (HepG2, 48 h), the “Tox50” value turned out to be 28.96 µM. Moreover, in the series on HepG2 cells (HepG2 TOX50 / Pf FGAA IC50), the Selectivity ratio came to 54.30. Also, the “HepG2 cells mean TOX50” value in the series with HepG2 cells (mean; HepG2 cells) is 28.96 µM.
For the molecule `COc1cc(OC)cc(C(=O)Nc2nc(-c3ccccn3)cs2)c1` [TCMDC-125345], the IC50 in series [2] was 4.95 µM. In series [1] (setting [5]), the “Block in transmission (%) (reduction in oocyst prevalence)” value was 60%. Moreover, in series [1] (Expt 1), the “Block in Transmission %” value was determined as 54%, the “Mean Oocyst Intensity in Test Compound” value is 0.7, the “Oocyst Reduction Intensity %” value was found to be 88% and the “Prevalence of Infection in Test Compound” value amounted to 35.97. For the same molecule, in series [1] (Expt 2), the “Block in Transmission %” value stood at 58%, the “Mean Oocyst Intensity in Test Compound” value was found to be 1.0, the “Oocyst Reduction Intensity %” value was 83% and the “Prevalence of Infection in Test Compound” value came to 38.22. Besides, the “Tox50” value in the series on HepG2 cells (HepG2, 48 h) is 39.82 µM. For the same molecule, the Selectivity ratio in the series on HepG2 cells (setting [6]) is on record as 111.27. Moreover, in the series on HepG2 cells (HepG2 cells; mean), the “HepG2 cells mean TOX50” value amounted to 39.82 µM.
